Values after ≈ are worked out from the molar mass of the structure shown.

Data set [1] has as its target human type II topoisomerase (topo II). The data set can be described thus: Topo II inhibitory activity. Type of data set: biochemical.
Data set [2] is described as follows: Stability in mouse liver microsomes. In kind it is in vitro ADME. The following applies: read-out: Stability (t 1/2) Mouse liver microsomes.
A short description of the next data set: Kinetic solubility. In kind it is physicochemical. Particulars: kinetic from dmso stock.
A short description of the next data set: Thermodynamic solubility. The following applies: thermodynamic from solid; Termodinamic. In kind it is physicochemical.
The nature of data set [3]: Stability in mouse plasma. The following applies: read-out: Stability (t 1/2) Mouse plasma. Type of data set: in vitro ADME.
A further data set deals with DU145. In words: Cell activity (cancer cell proliferation), DU145. Type of data set: cell-based. Particulars: Homo sapiens, DU-145.
A further data set relates to A549. In words: Cell activity (cancer cell proliferation), A549. Type of data set: cell-based. The following applies: Homo sapiens.
In a further data set the test system is HeLa. The data set can be described thus: Cell activity (cancer cell proliferation), HeLa. Particulars: Homo sapiens. In kind it is cell-based.
A further data set relates to A375. The data set can be described thus: Cell activity (cancer cell proliferation), A375. In kind it is cell-based. Particulars: Homo sapiens, A-375.
The test system of another data set is G361. The data set can be described thus: Cell activity (cancer cell proliferation), G361. The following applies: Homo sapiens, G-361. In kind it is cell-based.
Another data set concerns MCF7. The data set can be described thus: Cell activity (cancer cell proliferation), MCF7. Type of data set: cell-based. Particulars: Homo sapiens.

For the compound `Oc1ccc(Nc2nc(-c3ccncc3)nc3c2CNCC3)cc1` [Example E2.6, 4-[[2-(4-pyridyl)-5,6,7,8-tetrahydropyrido[4,3-d]pyrimidin-4-yl]amino]phenol], the IC50 in data set [1] stood at 200 ± 15 µM.
Regarding `Fc1ccccc1Nc1nc(-c2ccncc2)nc2c1CNCC2` [Example E2.7, N-(2-fluorophenyl)-2-(4-pyridyl)-5,6,7,8-tetrahydropyrido[4,3-d]pyrimidin-4-amine], the half-life in [2] is 0.5 h; in data set [3], over 2 h. For the same compound, the kinetic solubility in “Kinetic solubility” is over 250 µM. In the data set “Thermodynamic solubility”, this compound yielded a solubility of 596 µM (≈ 192 µg/mL). In [1], this compound yielded an IC50 of 4.5 ± 1 µM.
Compound `CNc1cccc(Nc2nc(-c3ccncc3)nc3c2CNCC3)c1` [Example E2.4, N3-methyl-N1-[2-(4-pyridyl)-5,6,7,8-tetrahydropyrido[4,3-d]pyrimidin-4-yl]benzene-1,3-diamine] displayed a solubility (kinetic) in the data set “Kinetic solubility” of over 250 µM. Moreover, the concentration for half-maximal inhibition (IC50) with DU145 is 45 µM; in data set [1], 160 ± 20 µM; in the data set on A549 it was 61.9 µM. The half-life in [3] is over 2 h.
In the case of `Fc1cccc(Nc2nc(-c3ccncc3)nc3ccncc23)c1` [Example E4, N-(3-fluorophenyl)-2-(4-pyridyl)pyrido[4,3-d]pyrimidin-4-amine], in data set [1], the IC50 is over 200 µM.
For `N[C@@H]1CCc2nc(-c3ccncc3)nc(Nc3cccc(F)c3)c2C1` (single isomer, unassigned) [Example E1.2], the kinetic solubility in the data set “Kinetic solubility” was over 250 µM. Also, the half-life in [3] is over 2 h.
With `Fc1cccc(Nc2nc(-c3ccncc3)nc3c2CNCC3)c1` [Example E2.1, N-(3-fluorophenyl)-2-(4-pyridyl)-5,6,7,8-tetrahydropyrido[4,3-d]pyrimidin-4-amine], the half-life in data set [2] was 0.65 h; in data set [3] it was over 2 h. This compound returned a kinetic solubility in “Kinetic solubility” of over 250 µM. For the same compound, the IC50 stood at 32.3 µM with HeLa; 32.9 µM in the data set on DU145; 25 ± 5 µM in data set [1]; 23.7 µM in the data set on A549; 29.6 µM in the data set with A375; 6.1 µM in the data set on G361. In addition, the concentration for half-maximal inhibition (IC50) in the data set with MCF7 was 33.4 µM. The compound also registered a solubility in “Thermodynamic solubility” of 96 µM (≈ 30.9 µg/mL).
With `Nc1cccc(Nc2nc(-c3ccncc3)nc3c2CC(N)CC3)c1` (stereo not drawn) [Example E1.6, N4-(3-aminophenyl)-2-(4-pyridyl)-5,6,7,8-tetrahydroquinazoline-4,6-diamine], the IC50 in the data set on DU145 is 37.4 µM; in data set [1] it was over 500 µM; in the data set with A549, 75.9 µM.
In “Kinetic solubility”, `NC1CCc2nc(-c3ccncc3)nc(Nc3ccc(F)cc3)c2C1` (stereo not drawn) [Example E1.8, N4-(4-fluorophenyl)-2-(4-pyridyl)-5,6,7,8-tetrahydroquinazoline-4,6-diamine] displayed a solubility (kinetic) of over 250 µM. Further, in data set [3], the half-life is over 2 h.
The like results for `N[C@H]1CCc2nc(-c3ccncc3)nc(Nc3cccc(F)c3)c2C1` (single isomer, unassigned) [Example E1.3] were, in that order, over 250 µM and over 2 h.
On to `COc1cccc(Nc2nc(-c3ccncc3)nc3c2CNCC3)c1` [Example E2.2, N-(3-methoxyphenyl)-2-(4-pyridyl)-5,6,7,8-tetrahydropyrido[4,3-d]pyrimidin-4-amine], for which, in “Kinetic solubility”, the solubility (kinetic) was over 250 µM. For the same compound, the concentration for half-maximal inhibition (IC50) in the data set on DU145 was 25 µM; in data set [1], 120 ± 13 µM; with A549, 35.3 µM. Moreover, in [3], the half-life is over 2 h.
Compound `Cc1cccc(Nc2nc(-c3ccncc3)nc3c2CC(N)CC3)c1` (stereo not drawn) [Example E1.4, N4-(m-tolyl)-2-(4-pyridyl)-5,6,7,8-tetrahydroquinazoline-4,6-diamine] gave a kinetic solubility in the data set “Kinetic solubility” of 249 µM (≈ 82.5 µg/mL). The 50% inhibitory concentration (IC50) was 12.3 µM in the data set on DU145, 200 ± 20 µM in [1] and 14.4 µM in the data set on A549. In [3], the half-life was over 2 h.
As to `COc1cccc(Nc2nc(-c3ccncc3)nc3c2CC(N)CC3)c1` (stereo not drawn) [Example E1.5, N4-(3-methoxyphenyl)-2-(4-pyridyl)-5,6,7,8-tetrahydroquinazoline-4,6-diamine], in the data set “Kinetic solubility”, the kinetic solubility was over 250 µM. Moreover, the half-life in data set [3] was over 2 h. In the data set on A549, the 50% inhibitory concentration (IC50) was determined as 26.2 µM.
On to `Nc1ccc2nc(-c3ccncc3)nc(Nc3cccc(F)c3)c2c1` [Example E3, N4-(3-fluorophenyl)-2-(4-pyridyl)quinazoline-4,6-diamine], for which the half-life came to 0.367 h in [2] and 1.48 h in [3]. The kinetic solubility in the data set “Kinetic solubility” is 17 µM (≈ 5.63 µg/mL). Moreover, the half-inhibitory concentration (IC50) with HeLa stood at 4.7 µM; in the data set with DU145 it was 7.7 µM; in [1], 80 ± 15 µM; in the data set on A549, 9.2 µM; in the data set with A375 it was 8.3 µM; with G361 it was 10.4 µM. The compound also came in with a 50% inhibitory concentration (IC50) in the data set with MCF7 of 8.6 µM. The same compound registered a solubility in “Thermodynamic solubility” of 0.2 µM (≈ 0.0663 µg/mL).
Take `CN(C)c1cccc(Nc2nc(-c3ccncc3)nc3c2CNCC3)c1` [Example E2.5, N3,N3-dimethyl-N1-[2-(4-pyridyl)-5,6,7,8-tetrahydropyrido[4,3-d]pyrimidin-4-yl]benzene-1,3-diamine]: the solubility (kinetic) in “Kinetic solubility” was over 250 µM. For the same compound, the IC50 came to 42.5 µM in the data set with DU145, 140 ± 20 µM in data set [1] and 40.8 µM with A549. The half-life in data set [3] is over 2 h.
As for `NC1CCc2nc(-c3cccnc3)nc(Nc3cccc(F)c3)c2C1` (stereo not drawn) [Example E1.10, N4-(3-fluorophenyl)-2-(3-pyridyl)-5,6,7,8-tetrahydroquinazoline-4,6-diamine], the concentration for half-maximal inhibition (IC50) with DU145 was determined as 25.4 µM; in the data set on A549, 21.3 µM. Further, in data set [3], the half-life was over 2 h.
For `Fc1cccc(Nc2nc(-c3ccncc3)nc3ccccc23)c1` [Example E6, N-(3-fluorophenyl)-2-(4-pyridyl)quinazolin-4-amine], the “Activity Topo II IC50 (μM)” value in data set [1] was “inactive”.
As to `CNc1cccc(Nc2nc(-c3ccncc3)nc3c2CC(N)CC3)c1` (stereo not drawn) [Example E1.7, N4-[3-(methylamino)phenyl]-2-(4-pyridyl)-5,6,7,8-tetrahydroquinazoline-4,6-diamine], the concentration for half-maximal inhibition (IC50) was 24.5 µM in the data set on DU145, over 200 µM in data set [1] and 33.4 µM in the data set on A549.
For `Nc1cccc(Nc2nc(-c3ccncc3)nc3c2CNCC3)c1` [Example E2.3, N1-[2-(4-pyridyl)-5,6,7,8-tetrahydropyrido[4,3-d]pyrimidin-4-yl]benzene-1,3-diamine], in the data set “Kinetic solubility”, the solubility (kinetic) was over 250 µM. In addition, the figures for the half-inhibitory concentration (IC50) (with DU145; in [1]; with A549) were 85.2 µM, 150 ± 18 µM and 513 µM, respectively. Besides, the half-life in data set [3] is over 2 h.
In the case of `NC1CCc2nc(-c3ccncc3)nc(Nc3cccc(F)c3)c2C1` (stereo not drawn) [Example E1.1, N4-(3-fluorophenyl)-2-(4-pyridyl)-5,6,7,8-tetrahydroquinazoline-4,6-diamine], the half-life is over 1 h in [2] and over 2 h in data set [3]. The compound also yielded a kinetic solubility in “Kinetic solubility” of over 250 µM.
As to `CN(C)c1ccc(Nc2nc(-c3ccncc3)nc3c2CC(N)CC3)cc1` (stereo not drawn) [Example E1.11, N4-[4-(dimethylamino)phenyl]-2-(4-pyridyl)-5,6,7,8-tetrahydroquinazoline-4,6-diamine], the half-life in data set [2] was over 1 h; in data set [3], over 2 h. Besides, in the data set “Kinetic solubility”, the kinetic solubility was over 250 µM. This compound showed a solubility in the data set “Thermodynamic solubility” of 452 µM (≈ 163 µg/mL). For the same compound, the half-inhibitory concentration (IC50) in data set [1] turned out to be 3.5 ± 0.5 µM.
As to `NC1CCc2nc(-c3ccncc3)nc(Nc3ccc(O)cc3)c2C1` (stereo not drawn) [Example E1.9, 4-[[6-amino-2-(4-pyridyl)-5,6,7,8-tetrahydroquinazolin-4-yl]amino]phenol], the IC50 in the data set with DU145 is 20.8 µM; in data set [1] it was over 500 µM; in the data set on A549 it was 74.5 µM.
